Results: US7671052B2 (priority 2004, dated 2010)
Read-outs that look alike come from different tables or passages of the source.

Key:
Male ICR mice = test: Catalepsy ring test; assay type: in vivo, mouse; details: for % catalepsy @ 30 mg/kg: 30 mg/kg i.p.; for % catalepsy @ 30 mg/kg / % catalepsy @ 100 mg/kg: 60 or 90 minutes after dosing; for % catalepsy @ 100 mg/kg: 100 mg/kg i.p.
Method: The apparatus consisted of a 5.5 centimeter ring attached to a ring stand at a height of 16 centimeters. Male ICR mice (20-25 g) were placed on the ring 60 or 90 minutes after dosing (i.p.) with test compounds or vehicle. Normal behavior for a mouse would be to walk around and investigate the ring. Catalepsy was shown when the mouse remained motionless. The amount of time (in seconds, in a 5 minute test session) the mouse spent motionless was determined.
Mice that fell or jumped were allowed 5 “escapes”. If 5 “escapes” happened before 2.5 minutes into the test, the data were disregarded. The immobility index (% catalepsy) was determined by the amount of time spent immobile divided by the length of the test (P. Little et al. Pharmac. Biochem. & Behavior 1989, 32, 661-666). Since the CB1 receptor is thought to be responsible for psychoactivity, the catalepsy ring test is an excellent in vivo screen for CB1 activity.

hCB1 [1] = target: T1, hCB1 (Homo sapiens, UniProt P21554); test: Inhibition of [3H]CP55940 binding to hCB1 receptor membranes; details: human cloned CB1 receptor
T1 construct: expressed in transfected cells; host or cells: CHO-K1 (Chinese hamster ovary), stably transfected; membrane preparation
Method: (§1) Chinese hamster ovary cells (CHO-K1), stably transfected with either hCB1 or hCB2, were washed two times with cold PBS, scraped from 500 cm^2 tissue culture plates, and pelleted by centrifugation at 1000×g for 10 min. The supernatant was discarded and the pellet was re-suspended in Tris assay buffer (50 mM Tris HCl, pH 7.8, containing 1.0 mM EGTA, 5.0 mM MgCl2, 10 μg/mL leupeptin, 10 μg/mL pepstatin A, 200 μg/mL bacitracin, and 0.5 μg/mL aprotinin), homogenized with a Polytron homogenizer (Brinkmann) at a setting of 1 for 20 sec and centrifuged at 38,000×g for 20 min at 4° C. The pellet was re-suspended in Tris assay buffer and aliquots of 1 mg protein/mL were stored at −80° C. for further use.
Binding assays were performed by incubating 0.2-0.6 nM (34,000-100,000 dpm) of [^3H]CP55940 with membranes prepared from cells expressing cloned human CB1 or CB2 receptors in buffer A (50 mM Tris HCl, pH 7.0, 5.0 mM MgCl2, 1.0 mM EGTA and 1.0 mg/mL fatty acid free bovine serum albumin). […] The filters were rinsed 6 times with one mL of cold wash buffer (50 mM Tris HCl, pH 7.0, 5.0 mM MgCl2, 1.0 mM EGTA and 0.75 mg/mL fatty acid free bovine serum albumin), 30 μL of MicroScint 20 was added to each filter and the radioactivity on the filters determined by scintillation spectroscopy. Nonspecific binding was determined in the presence of 10 μM WIN55212-2. […]

hCB1 [2] = target: T1, hCB1; test: hCB1-mediated stimulation of [35S]GTPγS binding; assay type: biochemical; details: read-out: in vitro CB1 receptor agonist potency (EC50)
Method: as §1
hCB1-mediated stimulation of [^35S]GTPγS binding was measured in a mixture containing 100-150 pM [^35S]GTPγS, 150 mM NaCl, […], 0.4 mM DTT, 1 mM EGTA, 1 mg/mL fatty acid free BSA, 25 μg of membrane protein and agonist in a total volume of 250 μL of buffer A in 96 well Basic Flashplates (Perkin Elmer). After incubation at room temperature for 2 hours the plates were centrifuged at 800×g at 4° C. for 5 min and the radioactivity bound to the membranes was determined by scintillation spectrometry using the Topcount (Perkin Elmer). […]

hCB2 [3] = target: T2, hCB2 (Homo sapiens, UniProt P34972); test: hCB2-mediated stimulation of [35S]GTPγS binding; assay type: biochemical; details: read-out: in vitro CB2 receptor agonist potency (EC50)
T2 construct: expressed in transfected cells; host or cells: CHO-K1 (Chinese hamster ovary), stably transfected; membrane preparation
Method: hCB2-mediated [^35S]GTPγS binding was measured in the same way except the assay mixture contained 10 mM GDP and the incubation time was 6 hours. […] After incubation at 30° C. for 2 hours, the plates were centrifuged at 800×g at 4° C. for 5 min and the radioactivity bound to the membrane was determined by scintillation spectrometry using the Topcount (Perkin Elmer).
EC50 values in functional assays were also derived from automated nonlinear regression analysis of sigmoidal titration curves using the three-parameter modification of the four-parameter equation.

hCB2 [4] = target: T2, hCB2; test: Inhibition of [3H]CP55940 binding to hCB2 receptor membranes
Male Sprague-Dawley rats = test: Neuropathic pain assay: L5 spinal nerve ligation, tactile sensitivity (von Frey); assay type: in vivo, rat; details: L5 SNL rats
Method: Male Sprague-Dawley rats (120-250 g, Harlan Laboratories, Columbus, Ohio) were housed in pairs and allowed free access to food and water throughout the study. Room temperature and humidity were maintained at 21° C. and 70%, respectively. Nerve injury was produced with tight ligation of the left L5 spinal nerve (Kim and Chung, 1992; LaBuda and Fuchs, 2000a, 2000b, LaBuda, Donahue and Fuchs, 2001). Briefly, animals were placed in the prone position to access the left L4-L6 spinal nerves. Under magnification, approximately one third of the L6 transverse process was removed. The L5 spinal nerve was identified and carefully dissected free from the adjacent L4 spinal nerve and then tightly ligated using 6-0 silk suture. The wound was treated with an antiseptic solution, the muscle layer was sutured, and the wound was closed with wound clips. Sham-operated surgical controls were prepared in the same manner, but the L5 spinal nerve was not […]. All housing conditions and experimental procedures were performed in accordance with the ethical guidelines of the IASP and the Adolor Corporation Animal Care and Use Committee.
Seven to ten animals per group were used for all behavioral assays. After a 7-10 day post-surgical recovery, animals were tested for baseline sensitivity to tactile stimulation of both hindpaws. Allodynic animals were defined as animals having a threshold of less than 7.5 grams of pressure applied to the injured hindpaw. Tactile sensitivity was evaluated using von Frey monofilaments before and after treatment. […] Thirty minutes after treatment, tactile sensitivity was evaluated. Five to seven days later, animals were tested using a different compound. Each animal was tested three times with different compounds. All behavioral testing was performed between 9:00 AM and 5:00 PM in a well-illuminated room with white background noise.
Animals were placed in a Plexiglas chamber (20 cm×10.5 cm×40.5 cm) and habituated for 15 minutes. The chamber was positioned on top of a mesh screen so that von Frey monofilaments could be presented to the plantar surfaces of both hindpaws. Measurements of tactile sensitivity for each hindpaw were obtained using the up/down method (Dixon, 1980) with seven von Frey monofilaments (0.04, 0.07, 0.16, 0.4, 1, 6, and 15 grams). Each trial started with a von Frey force of 0.4 g delivered to the right hindpaw and then the left hindpaw for approximately 1-2 sec each. If there was no withdrawal response, the next higher force was delivered. If there was a response, the next lower force was delivered. This procedure was performed until no response was made at the highest force (15 grams) or until four stimuli were administered following the initial response. The 50% paw withdrawal threshold for each paw was calculated using the following formula: [Xth]log=[vFr]log+ky where [vFr] is the force of the last von Frey filament used, k=0.2249 which is the average interval (in log units) between the von Frey monofilaments, and y is a value that depends upon the pattern of withdrawal responses (Dixon, 1980). […] Testing for tactile sensitivity was performed twice and the mean 50% withdrawal value assigned as the tactile sensitivity for the right and left paws for each animal.
Tactile sensitivity for both hindpaws before and after treatments were analyzed using one-way analysis of variance (ANOVA) followed by post-hoc comparisons (protected t-test) for group differences. An alpha level of 0.05 was used for all analyses.

[5] = Table 3, 10 mg/kg, n = 7-8/group
[6] = Table 3, 2.5 mg/kg i.p., n = 7-8/group

T1 sequence (P21554 whole entry): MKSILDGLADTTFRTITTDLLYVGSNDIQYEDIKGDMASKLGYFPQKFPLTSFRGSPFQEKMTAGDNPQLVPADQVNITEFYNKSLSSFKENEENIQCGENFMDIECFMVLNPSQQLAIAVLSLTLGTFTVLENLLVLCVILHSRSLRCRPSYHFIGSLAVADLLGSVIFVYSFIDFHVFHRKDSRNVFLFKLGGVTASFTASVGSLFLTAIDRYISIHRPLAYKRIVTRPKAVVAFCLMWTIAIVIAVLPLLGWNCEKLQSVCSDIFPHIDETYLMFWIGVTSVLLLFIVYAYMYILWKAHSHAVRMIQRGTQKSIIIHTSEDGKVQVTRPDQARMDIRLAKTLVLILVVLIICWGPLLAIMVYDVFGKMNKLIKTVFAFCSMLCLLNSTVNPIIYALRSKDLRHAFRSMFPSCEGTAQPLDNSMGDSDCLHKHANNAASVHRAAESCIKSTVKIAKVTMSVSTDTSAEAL
T2 sequence (P34972 whole entry): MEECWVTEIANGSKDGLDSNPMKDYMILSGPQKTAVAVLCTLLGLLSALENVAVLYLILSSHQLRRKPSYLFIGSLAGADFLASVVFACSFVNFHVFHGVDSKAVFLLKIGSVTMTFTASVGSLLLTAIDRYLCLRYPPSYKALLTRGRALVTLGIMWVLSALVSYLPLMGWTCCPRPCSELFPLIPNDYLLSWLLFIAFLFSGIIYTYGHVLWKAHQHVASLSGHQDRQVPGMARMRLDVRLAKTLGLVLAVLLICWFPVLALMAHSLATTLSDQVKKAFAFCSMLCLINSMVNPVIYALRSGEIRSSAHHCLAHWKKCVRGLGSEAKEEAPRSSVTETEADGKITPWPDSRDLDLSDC

## CCNC(=O)NCc1cccc(-c2ccc(C(C)(C)COCCC(=O)N3CCOCC3)cc2O)c1 [Compound 11, 1-{4′-[1,1-Dimethyl-2-(3-morpholin-4-yl-3-oxo-propoxy)-ethyl]-2′-hydroxy-biphenyl-3-yl-methyl}-3-ethyl-urea]
Male ICR mice
  % catalepsy @ 30 mg/kg: 6.65 ± 1.87%
  % catalepsy @ 100 mg/kg: 18.80 ± 3.33%

## CCCCOCC(C)(C)c1ccc(-c2ccccc2CNC(=O)NCC)c(O)c1 [Compound 12, 1-[4′-(2-Butoxy-1,1-dimethyl-ethyl)-2′-hydroxy-biphenyl-2-ylmethyl]-3-ethyl-urea]
hCB1 [1]
  Ki: 1.6 nM
hCB1 [2]
  EC50: 15.5 nM
hCB2 [3]
  EC50: 15.2 nM
hCB2 [4]; human cloned CB2 receptor, read-out: Ki(CB2)
  Ki: 0.56 nM

## CCCCOCC(C)(C)c1ccc(-c2cccc(CNC(=O)NCCC)c2)c(O)c1 [Compound 15, 1-[4′-(2-Butoxy-1,1-dimethyl-ethyl)-2′-hydroxy-biphenyl-3-ylmethyl]-3-propyl-urea]
hCB1 [1]
  Ki: 1.1 nM
hCB1 [2]
  EC50: 29.1 nM
hCB2 [3]
  EC50: 5.1 nM
hCB2 [4]
  Ki: 0.4 nM

## CCNC(=O)NCc1cccc(-c2ccc(C(C)(C)COCCOC)cc2O)c1 [Compound 17, 1-Ethyl-3-{2′-hydroxy-4′-[2-(2-methoxy-ethoxy)-1,1-dimethyl-ethyl]-biphenyl-3-ylmethyl}-urea]
Male ICR mice
  % catalepsy @ 30 mg/kg: 12.21 ± 2.79%
  % catalepsy @ 100 mg/kg: 47.93 ± 5.98%

## CCNC(=O)NCc1cccc(-c2ccc(C(C)(C)CCCCC(=O)N3CCOCC3)cc2O)c1 [Compound 20, 1-[4′-(1,1-Dimethyl-6-morpholin-4-yl-6-oxo-hexyl)-2′-hydroxy-biphenyl-3-yl-methyl]-3-ethyl-urea]
Male ICR mice
  % catalepsy @ 30 mg/kg: 3.07 ± 1.15%
  % catalepsy @ 100 mg/kg: 5.05 ± 1.81%
Male Sprague-Dawley rats; Table 2, 10 mg/kg i.p., n = 8
  Threshold: 12.16 ± 2.41 g
Male Sprague-Dawley rats; Table 2, 30 mg/kg i.p., n = 8
  Threshold: 12.02 ± 2.54 g
Male Sprague-Dawley rats; Table 3, 3 mg/kg, n = 7-8/group
  Threshold: 9.14 ± 3.36 g
Male Sprague-Dawley rats; [5]
  Threshold: 16.69 ± 1.19 g

## CCNC(=O)NCc1cccc(-c2ccc(C(C)(C)CCCNC(=O)C(C)(C)C)cc2O)c1 [Compound 35, N-(4-{3′-[(3-Ethyl-ureido)-methyl]-2-hydroxy-biphenyl-4-yl}-4-methyl-pentyl)-2,2-dimethyl-propionamide]
Male Sprague-Dawley rats; [5]
  Threshold: 10.96 ± 2.66 g

## CC(C)(CCCCC(=O)N1CCOCC1)c1ccc(-c2cccc(CNC(=O)C3CCCO3)c2)c(O)c1 (centres unmarked) [Compound 41, Tetrahydrofuran-2-carboxylic acid [4′-(1,1-dimethyl-6-morpholin-4-yl-6-oxo-hexyl)-2′-hydroxy-biphenyl-3-ylmethyl]-amide]
Male ICR mice
  % catalepsy @ 30 mg/kg: 13.07 ± 2.85%
  % catalepsy @ 100 mg/kg: 58.78 ± 7.95%

## CC(C)(CCCCC(=O)N1CCOCC1)c1ccc(-c2cccc(CNS(C)(=O)=O)c2)c(O)c1 [Compound 71]
Male ICR mice
  % catalepsy @ 30 mg/kg: 3.38 ± 2.75%
  % catalepsy @ 100 mg/kg: 24.65 ± 3.36%

## Cc1c(C(=O)c2cccc3ccccc23)c2cccc3c2n1[C@H](CN1CCOCC1)CO3 [WIN+, WIN55,212-2, reference compound]
Male ICR mice; WIN @ 10 mg/kg i.p.
  % catalepsy: 51.64 ± 2.69%
Male Sprague-Dawley rats; [6]
  Threshold: 15.03 ± 1.70 g

## Cc1c(C(=O)c2cccc3ccccc23)c2cccc3c2n1[C@@H](CN1CCOCC1)CO3 [WIN−, WIN55,212-3, reference compound]
Male Sprague-Dawley rats; [6]
  Threshold: 6.25 ± 1.19 g
